Assay [1] has as its target GTPγS-bound human HRasG12V / human c-Raf-1 Ras binding domain (RBD) (Homo sapiens (Human), UniProt P01112, G12V). The assay can be described thus: Ras-Raf binding inhibition ELISA. The method, then: The in vitro Ras-Raf binding inhibitory activity of the compound of the present invention was evaluated by an ELISA method (Enzyme-Linked ImmunoSorbent Assay) described below.
Ras and Raf used upon the evaluation were purified and activated by the following method.
Using a pGEX6P-1 vector (GE Healthcare), human HRasG12V (full length, 1-189 amino acid residues) and human c-Raf-1 Ras binding domain (RBD) (50-131 amino acid residues) were each allowed to express as a fusion body with glutathione S-transferase (GST) in E. coli.
GST-HRasG12V-expressing cells were subjected to ultrasonication in a buffer {50 mM Tris-HCl pH 7.4, 150 mM NaCl, 5 mM MgCl2, 1 mM ethylenediaminetetraacetic acid (EDTA), 1 mM dithiothreitol (DTT), 10% glycerol, and 1% Triton-X100}, and were then centrifuged at 100,000×g for 30 minutes, so as to collect the supernatant as a Ras protein fraction. HRasG12V in the supernatant was immobilized on a glutathione-agarose resin, and GST was then cleaved with PreScission Protease (GE Healthcare) for purification. The obtained HRasG12V was mixed with guanosine 5′-O-[gamma-thio]triphosphate trisodium salt (GTPTS) of 1000 times higher concentration at 30° C. for 1 hour, and thereafter, 20 mM MgCl2 (final concentration) was added to stop the reaction and collect the GTPgS-loaded HRasG12V as a product.
On the other hand, GST-c-Raf-1 RBD-expressing cells were subjected to ultrasonication in the same buffer as described above, and were then centrifuged at 100,000×g for 30 minutes, so as to collected the supernatant as a GST-c-Raf-1 RBD protein fraction.
The in vitro Ras-Raf binding inhibitory activity of the compound of the present invention was evaluated by an ELISA method described below.
GST-c-Raf-1 RBD diluted with a Ras-Raf binding buffer (50 mM Tris-HCl pH7.4, 150 mM NaCl, 5 mM MgCl2, 1 mM EDTA, and 1% Triton-X100) was added to each well of a glutathione-coated 96-well plate (Thermo Fisher Scientific.), and was incubated at 30° C. for 1 hour, to immobilize Raf on the well. The unbound free Raf was eliminated by washing the well with the Ras-Raf binding buffer three times. Subsequently, GTPTS-bound HRasG12V diluted with the Ras-Raf binding buffer and each compound solution (final DMSO concentration: 10%) were applied to each well, and the resulting mixture was then incubated at 30° C. for 1 hour, so that Ras and Raf were allowed to bind to each other. Thereafter, the plate was washed with the Ras-Raf binding buffer twice, and was then subjected to a blocking treatment at room temperature for 20 minutes, using TBS-Tween {10 mM Tris-HCl pH 7.4, 150 mM NaCl, and 0.05% (w/v) Tween-20}-5% (w/v) bovine serum albumin (BSA). After that, an anti-HRas antibody (C-20, Santa Cruz) or an anti-HRas antibody (259, Santa Cruz), which had been 1000 times diluted with TBS-Tween-5% BSA, was added to the reaction mixture, and incubated at room temperature for 1 hours. After the treatment with the primary antibody, the plate was washed with TBS-Tween-5% BSA three times, and a horseradish peroxidase-labeled secondary antibody against rabbit immunoglobulin G (GE Healthcare) of 1000 times diluted with TBS-Tween-5% BSA, was added to the plate, followed by incubation at room temperature for 1 hour. After the treatment with the secondary antibody, the plate was washed with TBS-Tween-5% BSA three times, and a substrate solution (TMB) was then added to the plate, followed by incubation at room temperature for 15 minutes for coloration. Finally, 2 M H2SO4 was added to stop color development (coloration reaction kit: Nacalai Tesque). The absorbance at 450 nm (OD450) was measured, so that the color intensity was quantified. Inhibition by the test compound was determined according to the following equation: […]
IC50 (*) in which the anti-HRas antibody (259, Santa Cruz) was used

Assay [2] has as its system acute lymphoblastic leukemia cells CCRF-CEM (K-RasG12D). The assay can be described thus: Cell growth inhibition, suspension cells CCRF-CEM. The format is cell-based. The note with it: Homo sapiens, 72 hours; for inhibition at 1 µM: read-out: CCRF-CEM (KRasG12D) % inhibition at 1 μM; for inhibition at 10 µM: read-out: CCRF-CEM (KRasG12D) % inhibition at 10 μM (**). The method, then:
(§1) The cell growth inhibitory activity of the compound of the present invention on human culture cells having active-type mutation in Ras was evaluated by the below-mentioned method using suspension cancer cells {acute lymphoblastic leukemia cells CCRF-CEM (K-RasG12D), promyelocytic leukemia cells HL60 (N-RasQ61L), acute lymphoblastic leukemia cells MOLT4 (N-RasG12C), and small cell lung cancer cells SHP77 (K-RasG12V)} and adherent cancer cells {large bowel cancer cells SW480 (K-RasG12V) and large bowel cancer cell SW620 (K-RasG12V)}.
(§2) (Case of suspension cells) The cells suspended in a medium containing 0.5% (v/v) fetal bovine serum (FBS) and each compound solution (final DMSO concentration: 1%) were seeded on a 96-well plate (2 to 4×10^4 cells/well), and the resulting mixture was then cultured at 37° C. in the presence of 5% CO2 for 72 hours.
(§3) Thereafter, the number of viable cells was measured using Cell Counting Reagent (Nacalai Tesque) in accordance with the manufacturer's instructions. Inhibition by the test compound was determined according to the following equation: […]

The test system of assay [3] is promyelocytic leukemia cells HL60 (N-RasQ61L). The assay can be described thus: Cell growth inhibition, suspension cells HL60. The following applies: Homo sapiens, HL-60, 72 hours; for inhibition at 10 µM: read-out: HL-60 (NRasQ61L) % inhibition at 10 μM (***); for inhibition at 1 µM: read-out: HL-60 (NRasQ61L) % inhibition at 1 μM; for inhibition at 3.2 µM: read-out: HL-60 (NRasQ61L) % inhibition at 3.2 μM (****). The format is cell-based. The protocol: as §1, §2, §3

In assay [4] the test system is large bowel cancer cell SW620 (K-RasG12V). The assay is described as follows: Cell growth inhibition, adherent cells SW620. The following applies: Homo sapiens, SW-620, 72 hours; for inhibition at 1 µM: read-out: SW620 (KRasG12V) % inhibition at 1 μM; for inhibition at 3.2 µM: read-out: SW620 (KRasG12V) % inhibition at 3.2 μM (***). Type of assay: cell-based. The method, then:
as §1
(Case of adherent cells) The cells suspended in a medium containing 10% FBS (1 to 2×10^4 cells/well) were seeded on a 96-well plate, and were then cultured at 37° C. in the presence of […]. Thereafter, the medium was exchanged with a medium containing […], to which each compound solution (final DMSO concentration: […]) had been added, and the cells were then cultured at 37° C. in the presence of […] for 72 hours.
as §3

The mark [5] stands for this setting: anti-HRas antibody C-20, read-out: ELISA IC50 (μM): 1st Ab_C-20.

These results are taken from patent US20250091994A1, “RAS/RAF BINDING INHIBITOR COMPOUND” (NATIONAL UNIVERSITY CORPORATION KOBE UNIVERSITY, priority 2021, published 2025).

Like-named read-outs stand apart in the source and are kept apart here.

GTPγS-bound human HRasG12V / human c-Raf-1 Ras binding domain (RBD), sequence (P01112 whole entry G12V, the tested form may be a part): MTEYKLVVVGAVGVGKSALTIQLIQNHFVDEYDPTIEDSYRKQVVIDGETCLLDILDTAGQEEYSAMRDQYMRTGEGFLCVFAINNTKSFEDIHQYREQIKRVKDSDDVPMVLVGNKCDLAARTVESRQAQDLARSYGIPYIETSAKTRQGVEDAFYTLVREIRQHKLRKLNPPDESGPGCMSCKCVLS

The term IC50 denotes the concentration at which inhibition is half-maximal. The inhibition is how much of the control response was suppressed. `CC(=O)N1/C(=C\c2ccc3cc(CO)ccc3n2)C(=O)c2ccccc21` [Example 33, (Z)-1-acetyl-2-((6-(hydroxymeth-yl)quinolin-2-yl)-methylene)indolin-3-one]: the concentration for half-maximal inhibition (IC50) in assay [1] (setting [5]) was 3.1 µM. In addition, the inhibition at 1 µM in assay [2] came to 94%.

As for `CC(=O)N1/C(=C\c2ccc3cc(CN4CCOCC4)ccc3n2)C(=O)c2ccccc21` [Example 35, (Z)-1-acetyl-2-((6-(morpholino-methyl)quinolin-2-yl)methylene)-indolin-3-one], in assay [1] (setting [5]), the concentration for half-maximal inhibition (IC50) came out at 2.6 µM. Further, the inhibition at 1 µM in assay [2] turned out to be 40%.

`CC(=O)N1/C(=C/c2nc(C(=O)N3CCOCC3)cs2)C(=O)c2ccccc21` [Example 55, (E)-1-acetyl-2-((4-(morpholine-4-carbonyl)thiazol-2-yl)methylene)-indolin-3-one]: the inhibition at 10 µM in assay [3] was 96%; in assay [2], 78%.

On to `CC(=O)N1/C(=C\c2ccc3cc(C(=O)N4CCS(=O)(=O)CC4)ccc3n2)C(=O)c2ccccc21` [Example 60, (Z)-1-acetyl-2-((6-(1,1-dioxido-thiomorpholine-4-carbonyl)quinolin-2-yl)methylene)-indolin-3-one], for which, in assay [1] (setting [5]), the IC50 is 6 µM. Besides, in assay [2], the inhibition at 10 µM amounted to 99%.

For the compound `CC(=O)N1/C(=C\c2ccc(OS(C)(=O)=O)cn2)C(=O)c2ccccc21` [Example 61, (Z)-6-((1-acetyl-3-oxoindolin-2-ylidene)methyl)-pyridin-3-yl methanesulfonate], the IC50 in assay [1] (setting [5]) was 2.7 µM. Besides, the inhibition at 1 µM in assay [2] came to 35%.

In the case of `CC(=O)N1/C(=C\c2ccc3cc(CN(C)C4CCOCC4)ccc3n2)C(=O)c2ccccc21` [Example 71, (Z)-1-acetyl-2-((6-((methyl(tetra-hydro-2H-pyran-4-yl)amino)meth-yl)quinolin-2-yl)-methylene)indolin-3-one], in assay [1] (setting [5]), the IC50 stood at 2.4 µM. Moreover, in assay [3], the inhibition at 1 µM was 41%. Moreover, the inhibition at 10 µM in assay [2] is 82%.

With `CC(=O)N1/C(=C\c2cc(-c3ccccc3-c3ccccc3)c3cc(C(=O)N4CCN(C5COC5)CC4)ccc3n2)C(=O)c2ccccc21` [Example 95, (Z)-2-((4-([1,1′-biphenyl]-2-yl)-6-(4-(oxetan-3-yl)-piperazine-1-carbonyl)quinolin-2-yl)methylene)-1-acetylindolin-3-one], in assay [1] (setting [5]), the IC50 amounted to 0.44 µM. In assay [3] (1.1 μM (*), read-out: HL-60 (NRasQ61L) % inhibition at 1.1 μM (*)), the inhibition at 1.1 µM was 88%. Moreover, the inhibition at 1 µM in assay [4] was determined as 70%.

Regarding `CC(=O)N1/C(=C\c2ccc3cc(CN4CCS(=O)(=O)CC4)ccc3n2)C(=O)c2ccccc21` [Example 107, (Z)-1-acetyl-2-((6-((1,1-dioxido-thiomorpholino)-methyl)quinolin-2-yl)methylene)-indolin-3-one], in assay [1] (setting [5]), the 50% inhibitory concentration (IC50) was 1.7 µM. For the same compound, the inhibition at 10 µM amounted to 82% in assay [3] and 81% in assay [2].

`CC(=O)N1/C(=C\c2ccc3cc(C(=O)N4CCC(N5CCOCC5)CC4)ccc3n2)C(=O)c2ccccc21` [Example 115, (Z)-1-acetyl-2-((6-(4-morpholino-piperidine-1-carbonyl)quinolin-2-yl)methylene)-indolin-3-one]: the IC50 in assay [1] (setting [5]) was found to be 11 µM. Besides, the inhibition at 10 µM in assay [2] is 98%.

For the compound `COCCN1CCN(C(=O)c2ccc3nc(/C=C4/C(=O)c5ccccc5N4C(C)=O)ccc3c2)CC1` [Example 116, (Z)-1-acetyl-2-((6-(4-(2-methoxy-ethyl)piperazine-1-carbonyl)quinolin-2-yl)methylene)-indolin-3-one], the inhibition at 10 µM in assay [2] was 98%.

Consider `CC(=O)N1/C(=C\c2cc(-c3ccccc3-c3ccccc3)c3cc(C(=O)O)ccc3n2)C(=O)c2ccccc21` [Example 128, (Z)-4-([1,1′-biphenyl]-2-yl)-2-((1-acetyl-3-oxo-indolin-2-ylidene)-methyl)quinoline-6-carboxylic acid], for which the IC50 in assay [1] (setting [5]) is 0.49 µM. Moreover, the inhibition at 3.3 µM in assay [3] (3.3 μM (**), read-out: HL-60 (NRasQ61L) % inhibition at 3.3 μM (**)) came out at 96%. For the same compound, in assay [4], the inhibition at 1 µM amounted to 70%.

With `CC(=O)N1/C(=C\c2nc3cc(CNC4CCOCC4)ccc3s2)C(=O)c2ccccc21` [Example 132, (Z)-1-acetyl-2-((5-(((tetrahydro-2H-pyran-4-yl)-amino)methyl)-benzo[d]thiazol-2-yl)methylene)-indolin-3-one], the IC50 in assay [1] (anti-HRas antibody 259 (*), read-out: ELISA IC50 (μM): 1st Ab_259 (*)) came to 1.2 µM. The figures for the inhibition at 1 µM in assay [3] and in assay [2] were 42% and 38%, respectively.

In assay [1], `CC(=O)N1/C(=C\c2cc(-c3ccccc3-c3ccccc3)c3cc(C(N)=O)ccc3n2)C(=O)c2ccccc21` [Example 141, (Z)-4-([1,1′-biphenyl]-2-yl)-2-((1-acetyl-3-oxo-indolin-2-ylidene)-methyl)quinoline-6-carboxamide] yielded an inhibition at 1 µM of 46.2%. Also, the IC50 in assay [1] (setting [5]) was 1.2 µM. Further, the inhibition at 3.2 µM is 94.6% in assay [3] and 91.3% in assay [4].

In assay [1], `CC(=O)N1/C(=C\c2cc(-c3ccccc3-c3ccccc3)c3cc(CNC4CCOCC4)ccc3n2)C(=O)c2ccccc21` [Example 143, (Z)-2-((4-([1,1′-biphenyl]-2-yl)-6-(((tetrahydro-2H-pyran-4-yl)amino)-methyl)quinolin-2-yl)methylene)-1-acetylindolin-3-one] registered an inhibition at 1 µM of 44.3%. Moreover, the IC50 in assay [1] (setting [5]) worked out at 0.6 µM. Moreover, the inhibition at 3.2 µM came out at 97.2% in assay [3] and 79.3% in assay [4].
